# Assays:
# [1] = system: streptozotocin-induced diabetic rats; experiment: effect on serum lipid profile of diabetic animals; format: in vivo, Wistar rats; conditions: compared to diabetic control group
# Protocol: (§1) The antidiabetic activity of the synthesized compound 10d was evaluated using a streptozotocin-induced diabetic rats model.
# (§2) Male Wistar rats weighing 150 to 230 gm were used for the study which were housed in polyacrylic cages (no more than six animals per cage) with dimensions of 38 × 23 × 10 cm and maintained under standard laboratory conditions with a dark/light cycle of 14 h of dark and 10 h of light at a temperature of 25 °C. The animals were provided with a standard diet (dry pellet) and water ad libitum. Before the start of the experimental procedures, the rats were acclimatized to laboratory conditions for 10 days. All the experiments were approved and performed as per the guidelines of the Departmental Research Ethics Committee under letter No. DREC/050 [49].
# (§3) Non-insulin-dependent diabetes mellitus was induced in fasted rats weighing 150–230 gm using a single dose of streptozotocin (STZ) at a dose of 60 mg/kg intraperitoneally after 15 min of the administration of nicotinamide at a 120 mg/kg dose i.p. Nicotinamide was prepared in normal saline while in citrate buffer (pH 4.5), STZ was prepared. After the induction of diabetes, the increase in the plasma glucose level was measured at 72 h and then measured on the 7th day to confirm hyperglycemia. For the diagnosis of diabetes, the threshold value of the fasting plasma glucose level was considered to be more than 126 mg/dl. For the study, only the animals with permanent NIIDM were utilized.
# (§4) The animals were classified into 5 groups with 6 animals in each group (n = 6). Group I comprised of normal control rats which were daily administered drinking water only; group II served as diabetic control rats (disease group); group III served as the positive control and were administered 0.5 mg/kg of the standard drug glibenclamide; and group IV and V served as the test group rats and were administered the test compound 10d at 10 mg/kg and 20 mg/kg, respectively, for twenty-eight days. The fasting glucose concentration was measured on the 0, 7th, 14th, and 28th day of the administration of the extract. During the experimental tenure, the weights of the rats were determined daily and the mean change was recorded.
# (§5) The animals were euthanized (sacrificed) via cervical dislocation on the 28th day to observe the biochemical parameters. The parameters studied were triglyceride (TGL), cholesterol, low-density lipoprotein, and high-density lipoprotein (LDL and HDL). The Minias Globe Diagnostic kits were used for cholesterol and TGL. Semi-autoanalyzers were used for the analysis. The serum samples from the rats were also checked for alanine aminotransferase (ALT), aspartate aminotransferase (AST), lactate dehydrogenase (LDH), serum alkaline phosphatase (ALP), and creatinine and urea levels utilizing commercially available kits of Crest Biosystems. The statistical analysis was also performed as per the previous procedure.
# [2] = system: streptozotocin-induced diabetic rats; experiment: in vivo antidiabetic activity, fasting plasma glucose level; design: species or system Wistar rats; conditions: STZ-induced diabetic rats, 28th day
# Protocol: as §1, §2, §3
# The animals were classified into 5 groups with 6 animals in each group (n = 6). […] The fasting glucose concentration was measured on the 0, 7th, 14th, and 28th day of the administration of the extract. During the experimental tenure, the weights of the rats were determined daily and the mean change was recorded.
# [3] = system: streptozotocin-induced diabetic rats; experiment: effect on body weight; format: in vivo, Wistar rats; conditions: for Change in Body Weight, After Treatment: 28 days
# Protocol: as §1, §2, §3, §4
# α-amylase = biological target: T1, α-amylase (Homo sapiens, UniProt P04746); experiment: in vitro α-amylase inhibitory activity; format: biochemical
# T1 sequence (P04746 16-511): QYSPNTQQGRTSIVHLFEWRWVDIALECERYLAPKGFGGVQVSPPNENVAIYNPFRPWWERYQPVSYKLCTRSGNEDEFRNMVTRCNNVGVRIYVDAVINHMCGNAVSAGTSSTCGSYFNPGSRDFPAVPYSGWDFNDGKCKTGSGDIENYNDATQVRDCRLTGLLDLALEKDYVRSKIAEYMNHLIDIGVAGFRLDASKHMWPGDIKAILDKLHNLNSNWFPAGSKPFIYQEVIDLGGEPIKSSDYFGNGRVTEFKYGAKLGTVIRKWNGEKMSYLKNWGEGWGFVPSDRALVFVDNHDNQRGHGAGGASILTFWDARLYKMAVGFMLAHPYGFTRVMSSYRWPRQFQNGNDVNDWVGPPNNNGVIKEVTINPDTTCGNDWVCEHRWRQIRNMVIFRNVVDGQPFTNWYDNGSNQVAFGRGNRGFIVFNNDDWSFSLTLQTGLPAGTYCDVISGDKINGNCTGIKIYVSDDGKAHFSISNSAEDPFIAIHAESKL
# Protocol: The test samples were added in alpha-amylase solution. The enzyme solution was prepared with enzyme and buffer solution. The mixture of the samples and enzyme was then incubated. Then, starch and dinitrosalicylic acid solution was added. The same was performed for both test compounds and the standard drug. […] The percent alpha-amylase inhibition activity and its IC50 values were calculated and confirmed as per the previous procedure.
# [4] = system: streptozotocin-induced diabetic rats; experiment: liver and renal serum biomarkers; format: in vivo, Wistar rats; conditions: 28th day
# Protocol: as §3, §4, §5
# [5] = system: streptozotocin-induced diabetic rats; experiment: serum insulin level estimation; format: in vivo, Wistar rats; design: unit not given here; conditions: for Insulin Level (Mean ±SEM), Final Reading: 28th day
# Protocol: as §3, §4
# After the 28th day of treatment with the test compound 10d, the blood samples were taken for the determination of the insulin levels, which were measured with the help of GLAZYME INSULIN-EIA TEST.
structure (smiles),measurement,setting,value
CC(C)(C=C1SC(=O)N(C(=O)CN2CCOCC2)C1=O)C1CC(=O)N(Cc2ccccc2)C1=O (stereo not shown) [10d],HDL level,[1],greater than before
same,LDL in serum,[1],significant decline
same,total cholesterol level in serum,[1],significant decline
same,triglyceride in serum,[1],significant decline
same,blood glucose level,[2]; 10 mg/kg,93.15 mg/dL
same,blood glucose level,[2]; 20 mg/kg,70.60 mg/dL
same,"Change in Body Weight, After Induction",[3]; 10mg (10 mg/kg) group,154.22 ± 3.62 gm
same,"Change in Body Weight, Before Induction",[3]; 10mg (10 mg/kg) group,191.23 ± 1.50 ^ns gm
same,"Change in Body Weight, After Treatment",[3]; 10mg (10 mg/kg) group,182.43 ± 5.76 gm
same,"Change in Body Weight, After Induction",[3]; 20mg (20 mg/kg) group,171.60 ± 1.90 ^ns gm
same,"Change in Body Weight, Before Induction",[3]; 20mg (20 mg/kg) group,204.66 ± 3.60 gm
same,"Change in Body Weight, After Treatment",[3]; 20mg (20 mg/kg) group,198.19 ± 4.66 gm
same,IC50,α-amylase,12 µM
same,inhibition at 31.25 µM,"α-amylase; 31.25 µM, read-out: % α-Amylase Inhibition (converted)",68.6%
same,inhibition at 62.5 µM,"α-amylase; 62.5 µM, read-out: % α-Amylase Inhibition (converted)",70%
same,inhibition at 125 µM,"α-amylase; 125 µM, read-out: % α-Amylase Inhibition (converted)",72.7%
same,inhibition at 250 µM,"α-amylase; 250 µM, read-out: % α-Amylase Inhibition (converted)",76.3%
same,inhibition at 500 µM,"α-amylase; 500 µM, read-out: % α-Amylase Inhibition",82.3 ± 1.2%
same,ALP,[4]; 10mg (10 mg/kg),184.43 ± 3.83 U/L
same,ALT,[4]; 10mg (10 mg/kg),136.80 ± 2.15 U/L
same,AST,[4]; 10mg (10 mg/kg),123.40 ± 3.70 U/L
same,Creatinine,[4]; 10mg (10 mg/kg),0.51 ± 0.57 ^ns mg/dl
same,LDH,[4]; 10mg (10 mg/kg),930.11 ± 4.26 U/L
same,Urea,[4]; 10mg (10 mg/kg),75.26 ± 2.44 mg/dL
same,ALP,[4]; 20mg (20 mg/kg),122.80 ± 2.00 U/L
same,ALT,[4]; 20mg (20 mg/kg),60.42 ± 2.20 U/L
same,AST,[4]; 20mg (20 mg/kg),94.32 ± 2.30 U/L
same,Creatinine,[4]; 20mg (20 mg/kg),0.42 ± 0.31 ^ns mg/dl
same,LDH,[4]; 20mg (20 mg/kg),850.53 ± 4.41 U/L
same,Urea,[4]; 20mg (20 mg/kg),51.53 ± 2.23 mg/dL
same,"Insulin Level (Mean ±SEM), Initial Reading",[5]; 10mg (10 mg/kg) group,0.81 ± 0.25
same,"Insulin Level (Mean ±SEM), Final Reading",[5]; 10mg (10 mg/kg) group,0.65 ± 0.57
same,"Insulin Level (Mean ±SEM), Initial Reading",[5]; 20mg (20 mg/kg) group,0.76 ± 0.38
same,"Insulin Level (Mean ±SEM), Final Reading",[5]; 20mg (20 mg/kg) group,0.76 ± 0.81

# — paper PMC9918900, “New Succinimide–Thiazolidinedione Hybrids as Multitarget Antidiabetic Agents: Design, Synthesis, Bioevaluation, and Molecular Modelling Studies” (Molecules, 2023)
